Laboratory results: ChEMBL document CHEMBL5233285, “Recent Update on the Development of PCSK9 Inhibitors for Hypercholesterolemia Treatment” (J Med Chem, 2022)
Numbered stars: 1 amine (or outer) side, 2 acyl side, 3 side chain; on linkers, the order of the positions; unused ones are H or OH. Square brackets hold non-standard residues; d marks the D form. Peptide text beside a SMILES is read from it. X1 = O=C(C1(N[*:1])CCC(c2ccccc2)CC1)[*:2]; hArg = N=C(N)NCCCC[C@H](N)C(=O)O

Key:
[1] = system: Homo sapiens; assay: Hypocholesterolemic activity in human assessed as reduction in TC level at 300 mg, QD administered for 28 days; assay type: functional; design: scale not given: the % may be the effect or the level left; conditions: time 28 day
[2] = system: Homo sapiens; assay: Hypocholesterolemic activity in human assessed as reduction in LDL-C level at 300 mg, QD administered for 28 days; assay type: functional; design: scale not given: the % may be the effect or the level left; conditions: time 28 day
[3] = system: Homo sapiens; assay: Hypocholesterolemic activity in human assessed as reduction in ApoB level at 300 mg, QD administered for 28 days; assay type: functional; design: scale not given: the % may be the effect or the level left; conditions: time 28 day
[4] = target: Proprotein convertase subtilisin/kexin type 9 (Mus musculus, UniProt Q80W65); assay: Binding affinity to mouse PCSK9
[5] = target: T1, Proprotein convertase subtilisin/kexin type 9 (Homo sapiens, UniProt Q8NBP7); assay: Binding affinity to human PCSK9
[6] = target: T2, PCSK9/LDLR (Homo sapiens, UniProt Q8NBP7); assay: Inhibition of PCSK9-LDLR protein-protein interaction in human HepG2 cells assessed as increase in LDL uptake; assay type: cell-based
[7] = species: Homo sapiens; assay: Hypocholesterolemic activity in human assessed as reduction in LDL-C level at 10 to 20 mg; assay type: functional; design: scale not given: the % may be the effect or the level left; conditions: dose 10-20 mg
[8] = target: T1, Proprotein convertase subtilisin/kexin type 9; assay: Binding affinity to PCSK9 (unknown origin)
[9] = target: T2, PCSK9/LDLR; assay: Inhibition of PCSK9-LDLR (unknown origin) protein-protein interaction; assay type: protein assay
[10] = target: T1, Proprotein convertase subtilisin/kexin type 9; assay: Inhibition of PCSK9 in human HepG2 cells assessed as increase in LDL uptake at 1 uM relative to control; assay type: cell-based
[11] = target: T1, Proprotein convertase subtilisin/kexin type 9; assay: Inhibition of PCSK9 in human HepG2 cells assessed as restoration of LDLR at 1 uM relative to control; assay type: cell-based
[12] = target: T1, Proprotein convertase subtilisin/kexin type 9; assay: Inhibition of human PCSK9 preincubated for 30 mins followed by EGF(A) addition and measured after 2 hrs by TR-FRET assay
[13] = target: T3, 3-hydroxy-3-methylglutaryl-coenzyme A reductase (Homo sapiens, UniProt P04035); assay: Inhibition of HMG CoA reductase (unknown origin)
T3 sequence (P04035 whole entry): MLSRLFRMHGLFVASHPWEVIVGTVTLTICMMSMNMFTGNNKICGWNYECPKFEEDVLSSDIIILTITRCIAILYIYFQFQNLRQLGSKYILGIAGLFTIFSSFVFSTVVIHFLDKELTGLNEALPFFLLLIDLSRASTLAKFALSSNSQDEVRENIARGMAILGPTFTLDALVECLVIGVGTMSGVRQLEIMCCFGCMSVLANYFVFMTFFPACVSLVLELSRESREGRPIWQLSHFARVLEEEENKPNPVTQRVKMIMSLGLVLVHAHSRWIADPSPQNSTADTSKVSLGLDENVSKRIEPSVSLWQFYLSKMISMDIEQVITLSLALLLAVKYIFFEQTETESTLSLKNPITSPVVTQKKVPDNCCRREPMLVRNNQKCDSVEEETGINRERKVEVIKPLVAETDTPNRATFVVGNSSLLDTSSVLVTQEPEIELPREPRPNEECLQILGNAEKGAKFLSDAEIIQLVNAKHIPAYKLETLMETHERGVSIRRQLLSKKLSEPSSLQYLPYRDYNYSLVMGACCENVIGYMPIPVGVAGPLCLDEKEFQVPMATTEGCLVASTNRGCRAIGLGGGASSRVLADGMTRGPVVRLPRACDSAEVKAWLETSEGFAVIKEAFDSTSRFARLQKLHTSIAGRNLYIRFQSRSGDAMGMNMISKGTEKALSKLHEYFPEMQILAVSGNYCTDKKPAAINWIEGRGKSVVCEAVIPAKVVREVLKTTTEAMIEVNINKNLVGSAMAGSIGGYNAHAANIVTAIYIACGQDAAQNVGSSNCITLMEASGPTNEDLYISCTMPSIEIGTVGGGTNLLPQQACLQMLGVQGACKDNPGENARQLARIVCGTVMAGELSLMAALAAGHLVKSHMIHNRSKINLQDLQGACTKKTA

[14] = target: T1, Proprotein convertase subtilisin/kexin type 9; assay: Inhibition of human PCSK9 preincubated for 30 mins followed by ab20 addition and measured after 2 hrs by TR-FRET assay
[15] = target: T1, Proprotein convertase subtilisin/kexin type 9; assay: Inhibition of human PCSK9 preincubated for 30 mins followed by LDLR addition and measured after 2 hrs by TR-FRET assay
[16] = target: T1, Proprotein convertase subtilisin/kexin type 9; assay: Inhibition of PCSK9 mediated LDLR degradation in human HepG2 cells assessed as restoration of LDLR; assay type: cell-based
[17] = target: T1, Proprotein convertase subtilisin/kexin type 9; assay: Inhibition of human PCSK9

T1 sequence (Q8NBP7 31-152 limits assumed): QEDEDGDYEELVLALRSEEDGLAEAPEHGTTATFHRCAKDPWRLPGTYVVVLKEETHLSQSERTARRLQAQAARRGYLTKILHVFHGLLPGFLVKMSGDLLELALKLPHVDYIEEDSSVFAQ
T1 sequence (Q8NBP7 153-692 limits assumed): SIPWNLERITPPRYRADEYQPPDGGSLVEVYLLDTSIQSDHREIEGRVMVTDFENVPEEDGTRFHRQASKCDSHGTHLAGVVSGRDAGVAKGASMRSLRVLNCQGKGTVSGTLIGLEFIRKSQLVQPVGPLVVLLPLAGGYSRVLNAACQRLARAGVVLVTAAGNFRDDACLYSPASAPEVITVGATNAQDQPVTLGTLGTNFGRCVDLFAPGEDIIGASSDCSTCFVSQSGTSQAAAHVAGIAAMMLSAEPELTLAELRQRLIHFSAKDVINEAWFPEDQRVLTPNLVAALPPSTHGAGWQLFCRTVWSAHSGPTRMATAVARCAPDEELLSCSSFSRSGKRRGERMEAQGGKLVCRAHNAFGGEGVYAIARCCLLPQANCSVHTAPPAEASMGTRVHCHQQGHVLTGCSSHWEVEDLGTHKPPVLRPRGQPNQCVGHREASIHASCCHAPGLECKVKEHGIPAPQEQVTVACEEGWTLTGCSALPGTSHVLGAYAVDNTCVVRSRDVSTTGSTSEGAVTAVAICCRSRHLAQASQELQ
T2 sequence (Q8NBP7 31-152 limits assumed): as the sequence (Q8NBP7 31-152 limits assumed) above
T2 sequence (Q8NBP7 153-692 limits assumed): as the sequence (Q8NBP7 153-692 limits assumed) above
T2 sequence (P01130 22-860 partner limits assumed): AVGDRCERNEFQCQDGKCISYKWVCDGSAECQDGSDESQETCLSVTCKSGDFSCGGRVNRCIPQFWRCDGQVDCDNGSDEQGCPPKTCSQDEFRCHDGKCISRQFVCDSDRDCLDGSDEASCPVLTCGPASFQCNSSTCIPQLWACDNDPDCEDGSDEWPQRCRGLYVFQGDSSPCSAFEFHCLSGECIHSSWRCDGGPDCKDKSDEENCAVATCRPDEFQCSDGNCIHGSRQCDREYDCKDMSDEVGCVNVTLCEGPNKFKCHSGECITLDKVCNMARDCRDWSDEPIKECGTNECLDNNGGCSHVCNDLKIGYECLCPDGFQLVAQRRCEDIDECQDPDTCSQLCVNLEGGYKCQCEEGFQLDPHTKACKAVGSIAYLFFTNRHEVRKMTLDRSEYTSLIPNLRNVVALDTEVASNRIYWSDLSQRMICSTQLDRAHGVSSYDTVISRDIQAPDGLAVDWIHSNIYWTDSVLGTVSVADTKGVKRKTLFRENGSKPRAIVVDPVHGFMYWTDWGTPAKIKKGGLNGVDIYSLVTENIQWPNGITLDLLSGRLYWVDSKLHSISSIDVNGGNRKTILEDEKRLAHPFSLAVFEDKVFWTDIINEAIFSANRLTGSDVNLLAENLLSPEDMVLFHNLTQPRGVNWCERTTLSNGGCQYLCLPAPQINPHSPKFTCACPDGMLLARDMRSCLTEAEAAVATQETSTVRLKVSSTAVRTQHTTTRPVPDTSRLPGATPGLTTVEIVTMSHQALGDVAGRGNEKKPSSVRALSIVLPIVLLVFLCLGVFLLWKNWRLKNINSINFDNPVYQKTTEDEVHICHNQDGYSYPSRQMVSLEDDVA
Chain of Proprotein convertase subtilisin/kexin type 9 (Mus musculus, UniProt Q80W65) (Q80W65 35-155 limits assumed): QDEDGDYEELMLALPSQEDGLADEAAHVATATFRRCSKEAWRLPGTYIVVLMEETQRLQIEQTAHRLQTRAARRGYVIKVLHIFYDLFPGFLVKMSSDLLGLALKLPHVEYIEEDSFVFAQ
Chain of Proprotein convertase subtilisin/kexin type 9 (Mus musculus, UniProt Q80W65) (Q80W65 156-694 limits assumed): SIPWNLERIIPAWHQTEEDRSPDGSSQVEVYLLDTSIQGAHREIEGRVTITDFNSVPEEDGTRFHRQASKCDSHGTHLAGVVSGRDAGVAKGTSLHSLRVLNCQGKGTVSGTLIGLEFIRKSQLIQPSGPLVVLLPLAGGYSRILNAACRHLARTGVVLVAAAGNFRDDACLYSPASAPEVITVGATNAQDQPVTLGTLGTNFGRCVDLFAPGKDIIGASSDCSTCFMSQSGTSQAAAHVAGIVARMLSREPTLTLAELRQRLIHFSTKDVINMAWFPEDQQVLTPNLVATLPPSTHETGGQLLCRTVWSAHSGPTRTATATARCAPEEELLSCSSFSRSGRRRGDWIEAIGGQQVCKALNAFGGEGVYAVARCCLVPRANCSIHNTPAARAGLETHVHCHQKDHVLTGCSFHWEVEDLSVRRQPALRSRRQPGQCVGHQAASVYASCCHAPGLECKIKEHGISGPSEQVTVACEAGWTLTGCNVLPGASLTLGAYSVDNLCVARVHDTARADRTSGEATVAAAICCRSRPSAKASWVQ

COc1ccc2c(c1)CCN1Cc3c(ccc(OC)c3OS(=O)(=O)c3cccc(F)c3)C[C@H]21.Cl
Activity [1]: 20.1%
Activity [2]: 26.3%
Activity [3]: 17.4%

CC(C)[C@@H]1NC(=O)[C@H](Cc2ccccc2)NC(=O)CSC[C@@H](C(=O)NCC(N)=O)NC(=O)[C@@H]2CCCN2C(=O)[C@H](CCCNC(=N)N)NC(=O)[C@H](CC(=O)O)NC(=O)[C@H](C)N(C)C(=O)[C@H](Cc2ccc(-c3ccccc3)cc2)NC(=O)[C@H](C)N(C)C(=O)[C@H](Cc2ccc(-c3ccccc3)cc2)NC(=O)[C@H]([C@@H](C)O)NC(=O)[C@H]([C@@H](C)O)NC(=O)[C@H](CO)NC1=O
Kd [4]: 1 nM
Kd [5]: 0.3 nM
EC50 [6]: 106 nM

C[C@H]1NC(=O)[C@H](CNC(=O)CCOCCOCC[N+](C)(C)C)NC(=O)CCSCc2cc3cc(c2)-n2cc(nn2)Cn2cc(c4cc(F)ccc42)C[C@@H]2NC(=O)[C@H](Cc4cccc(c4)C/C=C/CCO[C@H]4CCN(C2=O)[C@@H]4C(=O)N[C@@H]([C@@H](C)O)C(=O)N[C@@H](Cc2ccc(O)cc2)C(=O)N2CCC[C@@]2(C)C(=O)NCCSC3)NC1=O
Activity [7]: 65%

CC(C)C[C@H](C(=O)N1CCN([C@@H](CC(N)=O)C(=O)N[C@@H](CCCNC(=N)N)C(=O)C[C@H]2CCOC2=O)CC1)N1C(=O)N[C@@H](CC(=O)O)C1=O
Kd [8]: 24800 nM

CC(=O)N[C@H](C(=O)N[C@H](C(=O)N[C@@H](Cc1ccccc1)C(=O)N[C@@H](CCCNC(=N)N)C(=O)N[C@@H](CO)C(=O)N[C@@H](Cc1c[nH]c2ccccc12)C(=O)N[C@@H](CCC(=O)O)C(=O)N[C@@H](CCC(=O)O)C(=O)N[C@@H](Cc1ccc(O)cc1)C(=O)N[C@@H](CC(C)C)C(=O)N[C@@H](CC(=O)O)C(=O)N[C@@H](Cc1ccc(O)cc1)C(=O)N[C@H](C(N)=O)C(C)C)C(C)C)[C@@H](C)O (Ac-TVFRSWEEYLDYV-NH2)
IC50 [9]: 14500 nM
inhibition [10]: 88%
inhibition [11]: 75.3%

CC(=O)N[C@H](C(=O)N[C@H](C(=O)N[C@@H](Cc1ccccc1)C(=O)N[C@H](C(=O)N[C@@H](CO)C(=O)N[C@@H](Cc1c[nH]c2ccccc12)C(=O)N[C@@H](CCC(=O)O)C(=O)N[C@@H](CCC(=O)O)C(=O)N[C@@H](C)C(=O)N[C@@H](CC(C)C)C(=O)N[C@@H](CC(=O)O)C(=O)N[C@@H](Cc1c[nH]c2ccccc12)C(=O)N[C@H](C(N)=O)C(C)C)[C@@H](C)O)C(C)C)[C@@H](C)O (Ac-TVFTSWEEALDWV-NH2)
IC50 [9]: 27100 nM
inhibition [10]: 99%
inhibition [11]: 89.9%

CC[C@H](C)[C@H](NC(=O)[C@H](CCCCNC(=N)N)NC(=O)[C@@H](NC(=O)[C@H](CC(C)C)NC(=O)[C@H](CC(N)=O)NC(=O)[C@H](Cc1c[nH]c2ccccc12)NC(=O)[C@@H]1CCCN1C(=O)[C@H](CCSC)NC(=O)[C@H](CC(C)C)NC(=O)[C@@H](N)CC(=O)O)C(C)C)C(=O)NCC(=O)N[C@@H](CC(C)C)C(=O)N[C@@H](CC(C)C)C(=O)N[C@@H](CCCNC(=N)N)C(=O)O (H-DLMPWNLV[hArg]IGLLR-OH)
IC50 [12]: > 50000 nM

CC[C@H](C)[C@H](NC(=O)[C@@H](N)CC(C)C)C(=O)N[C@@H](CC(C)C)C(=O)N1CCC[C@H]1C(=O)N[C@@H](CCCCN)C(=O)N[C@@H](Cc1c[nH]cn1)C(=O)N[C@@H](CO)C(=O)N[C@@H](C)C(=O)N[C@@H](CC(=O)O)C(=O)O (H-LILPKHSAD-OH)
IC50 [9]: 1600 nM
IC50 [13]: 147000 nM

CC(C)C[C@H](N)C(=O)N1CCC[C@H]1C(=O)N[C@@H](CCCCN)C(=O)N[C@@H](Cc1c[nH]cn1)C(=O)N[C@@H](CO)C(=O)N[C@@H](C)C(=O)N[C@@H](CC(=O)O)C(=O)O (H-LPKHSAD-OH)
IC50 [9]: 1700 nM
IC50 [13]: 175000 nM

CC(C)C[C@H](NC(=O)[C@H](Cc1ccc(O)cc1)NC(=O)[C@@H](N)CC(C)C)C(=O)N1CCC[C@H]1C(=O)N[C@@H](CCCCN)C(=O)N[C@@H](Cc1c[nH]cn1)C(=O)N[C@@H](CO)C(=O)N[C@@H](CC(=O)O)C(=O)N[C@@H](CCCNC(=N)N)C(=O)N[C@@H](CC(=O)O)C(=O)O (H-LYLPKHSDRD-OH)
IC50 [9]: 700 nM

CC[C@H](C)[C@H](NC(=O)[C@H](CCCCNC(=N)N)NC(=O)[C@@H](NC(=O)[C@H](CC(C)C)NC(=O)[C@H](CC(N)=O)NC(=O)[C@H](Cc1c[nH]c2ccccc12)NC(=O)CNC(=O)[C@@H]1CCCN1C(=O)[C@H](Cc1ccccc1)NC(=O)[C@H](CO)NC(=O)[C@H](CCC(=O)O)NC(=O)[C@@H](N)CCSC)C(C)C)C(=O)NCC(=O)N[C@@H](CC(C)C)C(=O)N[C@@H](CC(C)C)C(=O)N[C@@H](CCCNC(=N)N)C(=O)O (H-MESFPGWNLV[hArg]IGLLR-OH)
IC50 [14]: 840 nM
IC50 [15]: 25000 nM
Kd [5]: 700 nM
inhibition [16]: 70%

CC[C@H](C)[C@H](NC(=O)[C@H](CCC(N)=O)NC(=O)[C@H](CC(C)C)NC(=O)[C@H](CC(N)=O)NC(=O)[C@H](Cc1c[nH]c2ccccc12)NC(=O)[C@@H]1CCCN1C(=O)[C@H](CC(C)C)NC(=O)[C@H](CCCNC(=N)N)NC(=O)[C@H](CS)NC(=O)CNC(=O)[C@H](CO)NC(=O)CNC(=O)[C@@H](NC(=O)[C@H](Cc1c[nH]c2ccccc12)NC(=O)[C@H](CC(=O)O)NC(=O)[C@H](CC(C)C)NC(=O)[C@H](Cc1ccc(O)cc1)NC(=O)[C@H](CCC(=O)O)NC(=O)[C@H](CCC(=O)O)NC(=O)[C@H](Cc1c[nH]c2ccccc12)NC(=O)[C@H](CO)NC(=O)[C@@H](NC(=O)[C@H](Cc1ccccc1)NC(=O)[C@@H](NC(=O)[C@@H](N)[C@@H](C)O)C(C)C)[C@@H](C)O)C(C)C)C(=O)NCC(=O)N[C@@H](CC(C)C)C(=O)N1CCC[C@H]1C(=O)N[C@@H](CS)C(=O)O (H-TVFTSWEEYLDWVGSGCRLPWNLQIGLPC-OH)
IC50 [12]: > 50000 nM
Kd [5]: 5.5 nM
EC50 [16]: 250 nM
IC50 [17]: 20 nM

CC[C@H](C)[C@H](NC(=O)[C@H](CCCCNC(=N)N)NC(=O)[C@@H](NC(=O)[C@H](CC(C)C)NC(=O)[C@H](CC(N)=O)NC(=O)[C@@H](N)Cc1c[nH]c2ccccc12)C(C)C)C(=O)NCC(=O)N[C@@H](CC(C)C)C(=O)N[C@@H](CC(C)C)C(=O)N[C@@H](CCCNC(=N)N)C(=O)O (H-WNLV[hArg]IGLLR-OH)
IC50 [12]: > 50000 nM

CC[C@H](C)[C@H](NC(=O)[C@H](CCCCNC(=N)N)NC(=O)[C@H](CCCCN)NC(=O)[C@H](CC(C)C)NC(=O)[C@H](CC(N)=O)NC(=O)[C@H](Cc1c[nH]c2ccccc12)NC(=O)C1(N)CCC(c2ccccc2)CC1)C(=O)NCC(=O)N[C@@H](CC(C)C)C(=O)N[C@@H](CC(C)C)C(=O)N[C@@H](CCCNC(=N)N)C(=O)O (stereo partly specified) (H-[X1]WNLK[hArg]IGLLR-OH)
IC50 [12]: 720 nM
IC50 [14]: 40 nM
IC50 [15]: 1830 nM
Kd [5]: 390 nM
inhibition [16]: 50%

CC[C@H](C)[C@H](NC(=O)[C@H](CCCCNC(=N)N)NC(=O)[C@@H](NC(=O)[C@H](CC(C)C)NC(=O)[C@H](CC(N)=O)NC(=O)[C@H](Cc1c[nH]c2ccccc12)NC(=O)C1(N)CCC(c2ccccc2)CC1)C(C)C)C(=O)NCC(=O)N[C@@H](CC(C)C)C(=O)N[C@@H](CC(C)C)C(=O)N[C@@H](CCCNC(=N)N)C(=O)O (stereo partly specified) (H-[X1]WNLV[hArg]IGLLR-OH)
IC50 [14]: 140 nM
IC50 [17]: 700 nM
